Measurements reported in US20140323721A1, “HETEROCYCLIC COMPOUNDS AND USES THEREOF” (INTELLIKINE, LLC, priority 2011, published 2014).

Test system: MDA-MB-361
Experiment: MDA-MB-361 proliferation
Type: cell-based
Conditions: Homo sapiens; in vitro IC50, MDA-MB-361 cells
Description: The ability of one or more subject compounds to inhibit tumor cell line proliferation is determined according to standard procedures known in the art. For instance, an in vitro cellular proliferation assay can be performed to measure the metabolic activity of live cells. The assay is performed in a 96 well microtiter plate using Alamar Blue reduction. Human tumor cell lines are obtained from ATCC (e.g., MCF7, U-87 MG, MDA-MB-468, PC-3), grown to confluency in T75 flasks, trypsinized with 0.25% trypsin, washed one time with Tumor Cell Media (DMEM+10% FBS), and plated in 90 ul at 5,000 cells/well in Tumor Cell Media. A compound disclosed herein is diluted in Tumor Cell Media and added in a 10 ul volume. Plates are incubated for 72 hours at 37 C and 5% CO2. A volume of 10 uL of Alamar Blue reagent is added to each well and plates are incubated for 3 hours at 37 C and 5% CO2. Alamar Blue fluoresce is read at 560 Ex/590 Em, and IC50 values are calculated using GraphPad Prism 5.
Cells comprising one or more mutations in PI3Kα, including but not limited to breast cancer cells (e.g., MDA-MB-361 and T47D), and cells comprising one or more mutations in PTEN including but not limited to prostate cancer cells (e.g., PC3), are typically grown in cell growth media such as DMEM supplemented with fetal bovine serum and/or antibiotics, and grown to confluency. Cells are then treated with various concentrations of test compound for about 2 hours and subsequently lysed in cell lysis buffer. Lysates are subjected to SDS-PAGE followed by Western blot analysis to detect downstream signaling markers, including but not limited to pAKT(S473), pAKT(T308), pS6, and p4E-BP1. Degree of proliferation (and proliferation inhibition) can also be measured for cells at various doses of compound of the present invention.

SMILES | IC50 [µM]
CCOC(=O)N1CC=C(c2cnc3ccc(-c4ccc5oc(N)nc5c4)nc3n2)CC1 [Compound 9] | < 1
Nc1nc2cc(-c3ccc4ncc(N5CC(N6CCN(CC7CC7)CC6)C5)cc4n3)ccc2o1 [Compound 60] | < 1
C[C@@H]1COCCN1c1cnc2ccc(-c3ccc4oc(N)nc4c3)nc2n1 [Compound 14] | < 1
C[C@H]1CN(C2CN(c3cnc4ccc(-c5ccc6oc(N)nc6c5)nc4c3)C2)CCN1 [Compound 54] | < 1
CN1CCN(C2CN(c3cnc4ccc(-c5ccc6oc(N)nc6c5)nc4c3)C2)CC1 [Compound 74] | < 1
CC(C)(N)C(=O)N1CCN(c2cnc3ccc(-c4ccc5oc(N)nc5c4)nc3c2)CC1 [Compound 43, 2-amino-1-(4-(6-(2-aminobenzo[d]oxazol-5-yl)-1,5-naphthyridin-3-yl)piperazin-1-yl)-2-methylpropan-1-one] | < 1
C[C@H]1CN(C2CN(c3cnc4ccc(-c5ccc6oc(N)nc6c5)nc4n3)C2)CCN1C [Compound 21] | < 10
Nc1nc2cc(-c3ccc4ncc(N5CCC(F)(F)CC5)nc4n3)ccc2o1 [Compound 13] | < 10
CC1(C)CN(C2CN(c3cnc4ccc(-c5ccc6oc(N)nc6c5)nc4n3)C2)CCN1 [Compound 52] | < 1
C[C@@H]1COCCN1C1CN(c2cnc3ccc(-c4ccc5oc(N)nc5c4)nc3c2)C1 [Compound 66] | < 10
C[C@H]1COCCN1c1cnc2ccc(-c3ccc4oc(N)nc4c3)nc2n1 [Compound 15] | < 1
Cc1nccn1C1CN(c2cnc3ccc(-c4ccc5oc(N)nc5c4)nc3c2)C1 [Compound 63] | < 10
C[C@H]1COCCN1C1CN(c2cnc3ccc(-c4ccc5oc(N)nc5c4)nc3n2)C1 [Compound 61] | > 10
Nc1nc2cc(-c3ccc4ncc(N5CC(N6CCOCC6)C5)nc4n3)ccc2o1 [Compound 5] | < 10
CC(C)N1CCN(c2cnc3ccc(-c4ccc5oc(N)nc5c4)nc3c2)CC1 [Compound 44] | < 10
CN1CC2CN(c3cnc4ccc(-c5ccc6oc(N)nc6c5)nc4n3)CC2C1 (stereo not drawn) [Compound 78] | < 10
Nc1nc2cc(-c3ccc4ncc(N5CC(N6CCN(CCO)CC6)C5)cc4n3)ccc2o1 [Compound 65] | < 1

SMILES | IC50 [µM]
Nc1nc2cc(-c3ccc4ncc(N5CCC(O)CC5)cc4n3)ccc2o1 [Compound 62] | < 10
Cc1nccn1C1CN(c2cnc3ccc(-c4ccc5oc(N)nc5c4)nc3n2)C1 [Compound 50] | < 10
Nc1nc2cc(-c3ccc4ncc(N5CC(N6CCOCC6)C5)cc4n3)ccc2o1 [Compound 53] | < 10
NCC(=O)N1CCN(c2cnc3ccc(-c4ccc5oc(N)nc5c4)nc3n2)CC1 [Compound 33] | > 10
C[C@@H]1CN(c2cnc3ccc(-c4ccc5oc(N)nc5c4)nc3n2)CCN1 [Compound 27] | < 10
Nc1nc2cc(-c3ccc4ncc(N5CCC(O)CC5)nc4n3)ccc2o1 [Compound 45] | < 1
C[C@@H]1CN(C2CN(c3cnc4ccc(-c5ccc6oc(N)nc6c5)nc4n3)C2)CCN1C [Compound 25] | < 10
C[C@H]1CN(c2cnc3ccc(-c4ccc5oc(N)nc5c4)nc3n2)CCN1 [Compound 1] | < 10
Nc1nc2cc(-c3ccc4ncc(N5CCNC(=O)C5)nc4n3)ccc2o1 [Compound 29] | < 1
C[C@H](N)C(=O)N1CCN(c2cnc3ccc(-c4ccc5oc(N)nc5c4)nc3c2)CC1 [Compound 38] | < 10
Nc1nc2cc(-c3ccc4ncc(N5CC(N6CCN(C7CC7)CC6)C5)nc4n3)ccc2o1 [Compound 69] | < 10
CCOC(=O)N1CCN(c2cnc3ccc(-c4ccc5oc(N)nc5c4)nc3c2)CC1 [Compound 36] | < 1
CC1(C)CN(C2CN(c3cnc4ccc(-c5ccc6oc(N)nc6c5)nc4c3)C2)CCN1 [Compound 58] | < 1
Nc1nc2cc(-c3ccc4ncc(N5CC(N6CCN(CC7CC7)CC6)C5)nc4n3)ccc2o1 [Compound 35] | < 10
Nc1nc2cc(-c3ccc4ncc(N5CC(N6CCN(CCO)CC6)C5)nc4n3)ccc2o1 [Compound 46] | < 10
C[C@@H]1CN(C2CN(c3cnc4ccc(-c5ccc6oc(N)nc6c5)nc4n3)C2)CCN1 [Compound 12] | < 10

Results, then the compound that gave them:

IC50 [µM] | SMILES
< 1 | Nc1nc2cc(-c3ccc4ncc(N5CCOCC5)nc4n3)ccc2o1 [Compound 2, 5-(3-morpholinopyrido[2,3-b]pyrazin-6-yl)benzo[d]oxazol-2-amine]
< 1 | C[C@H]1CN(C2CN(c3cnc4ccc(-c5ccc6oc(N)nc6c5)nc4c3)C2)CCN1C [Compound 55]
> 10 | Nc1nc2cc(-c3ccc4ncc(N5CC(N6CCNCC6)C5)nc4n3)ccc2o1 [Compound 34]
< 1 | C[C@@H]1CN(C2CN(c3cnc4ccc(-c5ccc6oc(N)nc6c5)nc4c3)C2)CCN1 [Compound 56]
< 10 | Nc1nc2cc(-c3ccc4ncc(N5CCOCC5)cc4n3)ccc2o1 [Compound 22]
< 10 | C[C@@H](N)C(=O)N1CCN(c2cnc3ccc(-c4ccc5oc(N)nc5c4)nc3c2)CC1 [Compound 39]
< 10 | Nc1nc2cc(-c3ccc4ncc(N5CCN(C(=O)C6(N)CC6)CC5)nc4n3)ccc2o1 [Compound 41]
< 1 | CCN1CCN(C2CN(c3cnc4ccc(-c5ccc6oc(N)nc6c5)nc4c3)C2)CC1 [Compound 75]
< 1 | CCOC(=O)N1CCN(c2cnc3ccc(-c4ccc5oc(N)nc5c4)nc3n2)CC1 [Compound 6]
< 10 | CN1CCN(c2cnc3ccc(-c4ccc5oc(N)nc5c4)nc3c2)CC1 [Compound 24]
< 1 | CC(C)N1CCN(C2CN(c3cnc4ccc(-c5ccc6oc(N)nc6c5)nc4c3)C2)CC1 [Compound 72, 5-(7-(3-(4-isopropylpiperazin-1-yl)azetidin-1-yl)-1,5-naphthyridin-2-yl)benzo[d]oxazol-2-amine]
< 1 | CN1CCN(C2CN(c3cnc4ccc(-c5ccc6oc(N)nc6c5)nc4c3)C2)CC1=O [Compound 64]
< 10 | NCC(=O)N1CCN(c2cnc3ccc(-c4ccc5oc(N)nc5c4)nc3c2)CC1 [Compound 37]
< 1 | C[C@@H]1CN(C2CN(c3cnc4ccc(-c5ccc6oc(N)nc6c5)nc4c3)C2)CCN1C [Compound 57]
< 10 | C[C@H]1CN(c2cnc3ccc(-c4ccc5oc(N)nc5c4)nc3c2)CCN1 [Compound 47]
< 1 | Nc1nc2cc(-c3ccc4ncc(N5CCN(C(=O)C6(N)CC6)CC5)cc4n3)ccc2o1 [Compound 42]
< 10 | CC(C)(N)C(=O)N1CCN(c2cnc3ccc(-c4ccc5oc(N)nc5c4)nc3n2)CC1 [Compound 40]
< 10 | C[C@@H](N)C(=O)N1CCN(c2cnc3ccc(-c4ccc5oc(N)nc5c4)nc3n2)CC1 [Compound 31]
< 10 | Nc1nc2cc(-c3ccc4ncc(N5CC(N6CCN(C7CC7)CC6)C5)cc4n3)ccc2o1 [Compound 70]
< 10 | C[C@@H]1CN(c2cnc3ccc(-c4ccc5oc(N)nc5c4)nc3c2)CCN1 [Compound 48]
< 10 | C[C@H]1CN(C2CN(c3cnc4ccc(-c5ccc6oc(N)nc6c5)nc4n3)C2)CCN1 [Compound 10]
> 10 | Nc1nc2cc(-c3ccc4ncc(-c5cccnc5)cc4n3)ccc2o1 [Compound 16]
< 10 | CC(C)N1CCN(c2cnc3ccc(-c4ccc5oc(N)nc5c4)nc3n2)CC1 [Compound 32]
< 10 | CS(=O)(=O)N1CCN(C2CN(c3cnc4ccc(-c5ccc6oc(N)nc6c5)nc4n3)C2)CC1 [Compound 8]
< 10 | CN1CCN(c2cnc3ccc(-c4ccc5oc(N)nc5c4)nc3n2)CC1 [Compound 4]
< 10 | C[C@H]1COCCN1C1CN(c2cnc3ccc(-c4ccc5oc(N)nc5c4)nc3c2)C1 [Compound 68]
< 10 | CN1CCN(C2CN(c3cnc4ccc(-c5ccc6oc(N)nc6c5)nc4n3)C2)CC1 [Compound 71]
